Assay results as given in ChEMBL document CHEMBL5523764, “Discovery of NO Donor-Aurovertin Hybrids as Dual Ferroptosis and Apoptosis Inducers for Treating Triple Negative Breast Cancer” (J Med Chem, 2024).
Active and inactive are the calls of the source. No cut-off for these calls is given here.

How the values were obtained:
4T1 = test: Antiproliferative activity against mouse 4T1 cells assessed as reduction in cell viability incubated for 72 hrs by MTT assay; format: functional, cell-based; settings: 4T1, 72 h
[1] = Cytotoxicity against human MCF-10A cells assessed as reduction in cell viability incubated for 72 hrs by MTT assay; format: toxicity, cell-based
[2] = Selectivity index, ratio of IC50 for cytotoxicity against human MCF-10A cells to IC50 for antiproliferative activity against human MDA-MB-231 cells; format: toxicity, cell-based; settings: MCF-10A cells versus MDA-MB-231 cells, read-out: Ratio IC50
MDA-MB-231 [3] = test: Antiproliferative activity against human MDA-MB-231 cells assessed as reduction in cell viability incubated for 72 hrs by MTT assay; format: functional, cell-based; settings: MDA-MB-231, 72 h
MDA-MB-231 [4] = test: Induction of NO release in human MDA-MB-231 cells assessed NO concentration by Griess reagent based assay; format: functional
MDA-MB-231 [5] = test: Induction of ferroptosis in human MDA-MB-231 cells xenografted in nude mouse assessed as reduction in GPX4 level at 5 mg/kg, ip administered for 30 days by immunohistochemistry analysis; format: functional, organism-based; settings: time 30.0 day
MDA-MB-231 [6] = test: Antitumor activity against human MDA-MB-231 cells xenografted in nude mouse assessed as reduction in tumor weight at 5 mg/kg, ip administered for 30 days; format: functional, organism-based; settings: time 30.0 day
MDA-MB-231 [7] = test: Antitumor activity against human MDA-MB-231 cells xenografted in nude mouse assessed as reduction in tumor size at 5 mg/kg, ip administered for 30 days; format: functional, organism-based; settings: time 30.0 day

Row | Compound | IC50 (4T1) [nM] | IC50 at 72 h [1] [µM] | selectivity ratio [2] | IC50 (MDA-MB-231 [3]) [nM] | Activity (MDA-MB-231 [4]) [µM] | Activity (MDA-MB-231 [5]) | Activity (MDA-MB-231 [6]) | Activity (MDA-MB-231 [7])
1 | CC[C@H]1O[C@@]2(C)[C@H](OC(C)=O)[C@@]1(C)O[C@@H](/C=C/C=C/C=C/c1oc(=O)cc(OC)c1C)[C@@H]2OC(=O)CCC(=O)ONC(=O)COCCOc1no[n+]([O-])c1S(=O)(=O)c1ccccc1 | 3420 | > 50 | > 33 | 1500 |  |  |  | 
2 | CC[C@H]1O[C@@]2(C)[C@H](OC(C)=O)[C@@]1(C)O[C@@H](/C=C/C=C/C=C/c1oc(=O)cc(OC)c1C)[C@@H]2OC(=O)CCCC(=O)OCc1c(CSCC(=O)O)no[n+]1[O-] |  |  |  | > 10000 | 1.76 |  |  | 
3 | CC[C@H]1O[C@@]2(C)[C@H](OC(C)=O)[C@@]1(C)O[C@@H](/C=C/C=C/C=C/c1oc(=O)cc(OC)c1C)[C@@H]2OC(=O)CCC(=O)ONC(=O)CCCCCOc1no[n+]([O-])c1S(=O)(=O)c1ccccc1 | 1890 | > 50 | > 48 | 1050 |  |  |  | 
4 | CC[C@H]1O[C@@]2(C)[C@H](OC(C)=O)[C@@]1(C)O[C@@H](/C=C/C=C/C=C/c1oc(=O)cc(OC)c1C)[C@@H]2OC(=O)CCCC(=O)OCc1c(-c2ccc(OC)cc2)no[n+]1[O-] | 6720 | > 50 | > 13 | 3870 |  |  |  | 
5 | CC[C@H]1O[C@@]2(C)[C@H](OC(C)=O)[C@@]1(C)O[C@@H](/C=C/C=C/C=C/c1oc(=O)cc(OC)c1C)[C@@H]2OC(=O)CCC(=O)OCC#CCOc1no[n+]([O-])c1S(=O)(=O)c1ccccc1 | 2080 | > 50 | > 40 | 1230 |  |  |  | 
6 | CC[C@H]1O[C@@]2(C)[C@H](OC(C)=O)[C@@]1(C)O[C@@H](/C=C/C=C/C=C/c1oc(=O)cc(OC)c1C)[C@@H]2OC(=O)CCCCCCCOc1no[n+]([O-])c1S(=O)(=O)c1ccccc1 | 1230 | > 50 | > 71 | 700 |  |  |  | 
7 | CC[C@H]1O[C@@]2(C)[C@H](OC(C)=O)[C@@]1(C)O[C@@H](/C=C/C=C/C=C/c1oc(=O)cc(OC)c1C)[C@@H]2OC(=O)CCC(=O)ONC(=O)CCCCOc1no[n+]([O-])c1S(=O)(=O)c1ccccc1 | 2720 | > 50 | > 40 | 1230 |  |  |  | 
8 | CC[C@H]1O[C@@]2(C)[C@H](OC(C)=O)[C@@]1(C)O[C@@H](/C=C/C=C/C=C/c1oc(=O)cc(OC)c1C)[C@@H]2OC(=O)CCCC(=O)OCc1c(-c2ccc(C)cc2)no[n+]1[O-] | 7160 | > 50 | > 8 | 5720 |  |  |  | 
9 | COc1cccc2c1C(=O)c1c(O)c3c(c(O)c1C2=O)C[C@@](O)(C(=O)CO)C[C@@H]3O[C@H]1C[C@H](N)[C@@H](O)[C@H](C)O1 |  |  |  |  |  | inactive | Active | Active
10 | CC[C@H]1O[C@@]2(C)[C@H](OC(C)=O)[C@@]1(C)O[C@@H](/C=C/C=C/C=C/c1oc(=O)cc(OC)c1C)[C@@H]2OC(=O)CCCC(=O)OCc1c(-c2ccc(Cl)cc2)no[n+]1[O-] | 7860 | > 50 | > 10 | 4590 | 2.42 |  |  | 
11 | CC(=O)O[C@H]1C(=O)[C@@]2(C)[C@H]([C@H](OC(=O)c3ccccc3)[C@]3(O)C[C@H](OC(=O)[C@H](O)[C@@H](NC(=O)c4ccccc4)c4ccccc4)C(C)=C1C3(C)C)[C@]1(OC(C)=O)CO[C@@H]1C[C@@H]2O [PACLITAXEL] | 3840 | 7.82 | 1.7 | 4550 |  |  |  | 
12 | O=S(=O)(c1ccccc1)c1no[n+]([O-])c1S(=O)(=O)c1ccccc1 | 2140 | 3.8 | 3.1 | 1090 | 8.06 |  |  | 
13 | CC[C@H]1O[C@@]2(C)[C@H](OC(C)=O)[C@@]1(C)O[C@@H](/C=C/C=C/C=C/c1oc(=O)cc(OC)c1C)[C@H]2OC(=O)CCC(=O)OCCCCCOc1no[n+]([O-])c1S(=O)(=O)c1ccccc1 | 1120 | > 50 | > 83 | 600 | 4.6 |  |  | 
14 | CC[C@H]1O[C@]2(C)C(OC(=O)CCC(=O)OCc3ccc(Oc4no[n+]([O-])c4S(=O)(=O)c4ccccc4)cc3)[C@H](/C=C/C=C/C=C/c3oc(=O)cc(OC)c3C)O[C@]1(C)[C@H]2OC(C)=O (single isomer, unassigned) | > 10000 |  |  | 5880 | 2.44 |  |  | 
15 | CC[C@H]1O[C@@]2(C)[C@H](OC(C)=O)[C@@]1(C)O[C@@H](/C=C/C=C/C=C/c1oc(=O)cc(OC)c1C)[C@@H]2OC(=O)CCC(=O)OCCOCCOc1no[n+]([O-])c1S(=O)(=O)c1ccccc1 | 2700 | > 50 | > 28 | 1750 |  |  |  | 
